Test results reported in ChEMBL document CHEMBL1201862, “PubChem BioAssay data set” (2004).
Activity calls are given as the source filed them.

Experiments:
[1] = cells
[2] = test system: INS1; experiment: INS-1E survival protection against cytokine death – cell-based, luminescence, retest, dose response (AID 449756); assay type: functional; settings: Rattus norvegicus;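 further: cell death triggered by IL-1 beta plus TNF-alpha plus IFN-gamma mixture; protective hits raise ATP signal compared with cytokine alone wells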
[3] = target: Melanocortin receptor 4 (Homo sapiens, UniProt P32245); assay type: functional, cell-based;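 further: Cell-based assay with luminescence read-out, confirmatory dose-response testing for agonist activity of biased ligands at MC4R; human U2OS cells with tagged receptor and beta-arrestin; potency of agonists that increase receptor coupling to beta-arrestin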
[4] = NIH3T3 cell viability loss – ATP luminescence, mouse fibroblasts, counter-screen, dose response (AID 2010); assay type: functional, cell-based;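 further: cells exposed to compound for about 90 hours before reading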
[5] = Trypanosoma cruzi growth suppression in host cells – NIH3T3 host cells, beta-gal luminescence, confirmation (AID 2044); assay type: functional, cell-based;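 further: intracellular parasites grown in NIH/3T3 mouse fibroblasts as host cells; luminescent beta-galactosidase reporter signal from transgenic T. cruzi replicating inside host cells; inhibitors lower the luminescence signal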
[6] = target: Cytochrome P450 2C19 (Homo sapiens, UniProt P33261); experiment: qHTS Assay for Inhibitors and Substrates of Cytochrome P450 2C19. [Related pubchem assays: 410 ]; assay type: ADME; settings: read-out: Potency
[7] = target: Cytochrome P450 2C9 (Homo sapiens, UniProt P11712)
[8] = target: Aryl hydrocarbon receptor (Homo sapiens, UniProt P35869); experiment: Luminescence-based cell-based high throughput dose response assay for activators of the Aryl Hydrocarbon Receptor (AHR). [Related pubchem assays: 2796 (Primary screen (AHR activators in singlicate)), 2845 (Confirmation screen (AHR activators in triplicate)), 434939 (Counterscreen (PXR activators in triplicate)), 2804 (Summary (AHR activators))]; assay type: ADME
[9] = target: Cytochrome P450 3A4 (Homo sapiens, UniProt P08684);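 further: CYP3A4 tested as one member of a cytochrome P450 panel screen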
[10] = Luminescence Cell-Based Dose Confirmation HTS to Identify Activators of 5'UTR Stem-Loop Driven Alpha-Synuclein mRNA Translation in H4 Neuroglioblastoma Cells. [Related pubchem assays: 1829 (Project Summary), 1814 (Primary HTS)]; assay type: functional
[11] = test system: H4; experiment: Luminescence Cell-Based Dose Response HTS to Identify Activators of 5'UTR Stem-Loop Driven Prion Protein mRNA Translation in H4 Neuroglioblastoma Cells. [Related pubchem assays: 1829 (Project Summary), 1814 (Primary HTS)]; assay type: functional; settings: Homo sapiens
[12] = target: Large T antigen (Simian virus 40, UniProt P03070); assay type: functional, Betapolyomavirus macacae;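 further: Confirmatory-stage PubChem screen for compounds that inhibit SV40 T antigen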
[13] = Luminescence Cell-Based Dose Response HTS to Identify Activators of Luciferase Translation or Activity in H4 […] Cells. [Related pubchem assays: 1829 (Project Summary), 1814 (Primary HTS)]; assay type: functional
[14] = target: Estrogen receptor beta (Homo sapiens, UniProt Q92731); experiment: blockers of SRC-3 recruitment to ERβ – biochemical, ELISA, streptavidin-HRP readout, orthogonal assay, confirmation (AID 1060)
[15] = target: NADPH oxidase 1 (Homo sapiens, UniProt Q9Y5S8); assay type: functional, cell-based;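 further: Cell-based assay with luminescence read-out, IC50 derived from inhibitor dose-response curves; intracellular ROS from endogenous NOX1 in intact HT29 colon cancer cells; potency of inhibitors that lower the ROS luminescence signal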
[16] = target: Induced myeloid leukemia cell differentiation protein Mcl-1 (Homo sapiens, UniProt Q07820); experiment: blockers of MCL1 binding to BIM peptide – biochemical, fluorescence polarization, BIM-BH3 peptide, 1536-well, dose response (AID 2217)
[17] = target: Bcl-2-like protein 1 (Homo sapiens, UniProt Q07817); experiment: blockers of BCLXL peptide binding – biochemical, fluorescence polarization, 1536-well, selectivity assay for MCL1 inhibitor project, dose response (AID 2218)
[18] = target: T1, Long-chain-fatty-acid--AMP ligase FadD28 (Mycobacterium tuberculosis, UniProt P9WQ59); experiment: Fluorescence polarization aasay to screen for inhibitors that compete for the binding of FadD28 to a bisubstrate Measured in Biochemical System Using Plate Reader - 2147-01_Inhibitor_Dose_CherryPick_Activity.; assay type: functional, Mycobacterium tuberculosis H37Rv
T1 sequence (P9WQ59 whole entry): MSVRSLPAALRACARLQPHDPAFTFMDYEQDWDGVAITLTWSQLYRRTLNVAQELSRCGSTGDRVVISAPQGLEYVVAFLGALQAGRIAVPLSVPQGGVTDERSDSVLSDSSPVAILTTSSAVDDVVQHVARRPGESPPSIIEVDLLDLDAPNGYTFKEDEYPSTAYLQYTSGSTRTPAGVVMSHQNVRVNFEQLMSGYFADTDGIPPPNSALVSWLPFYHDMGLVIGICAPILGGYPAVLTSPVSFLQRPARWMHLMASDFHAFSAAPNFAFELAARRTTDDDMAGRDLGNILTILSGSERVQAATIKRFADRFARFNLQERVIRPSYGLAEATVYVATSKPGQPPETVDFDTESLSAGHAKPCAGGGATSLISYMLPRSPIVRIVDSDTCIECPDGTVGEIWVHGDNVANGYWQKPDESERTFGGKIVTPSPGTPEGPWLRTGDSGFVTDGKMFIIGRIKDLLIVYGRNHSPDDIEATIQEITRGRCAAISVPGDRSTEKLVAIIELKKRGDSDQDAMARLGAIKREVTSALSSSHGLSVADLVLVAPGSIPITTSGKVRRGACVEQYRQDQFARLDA

[19] = target: T2, Zinc finger protein mex-5 (Caenorhabditis elegans, UniProt Q9XUB2); experiment: potency of MEX-5 RNA-binding blockers – biochemical, C. elegans, fluorescence polarization, dose response (AID 1960)
T2 sequence (Q9XUB2 whole entry): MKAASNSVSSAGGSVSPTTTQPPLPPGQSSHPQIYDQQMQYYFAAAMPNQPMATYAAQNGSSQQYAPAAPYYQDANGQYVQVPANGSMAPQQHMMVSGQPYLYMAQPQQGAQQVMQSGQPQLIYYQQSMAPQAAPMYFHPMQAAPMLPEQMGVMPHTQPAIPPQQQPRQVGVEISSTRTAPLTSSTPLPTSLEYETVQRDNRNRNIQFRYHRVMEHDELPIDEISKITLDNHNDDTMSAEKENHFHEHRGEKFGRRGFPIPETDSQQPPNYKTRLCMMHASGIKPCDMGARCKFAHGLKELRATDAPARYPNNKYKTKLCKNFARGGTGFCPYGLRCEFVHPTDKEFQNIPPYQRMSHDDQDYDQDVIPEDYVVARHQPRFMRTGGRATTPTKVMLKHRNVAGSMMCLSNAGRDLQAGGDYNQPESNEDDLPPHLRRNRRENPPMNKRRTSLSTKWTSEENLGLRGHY

[20] = target: Heat shock protein HSP 90-alpha (Homo sapiens, UniProt P07900); assay type: functional, organism-based
[21] = target: T3, RNA-binding protein pos-1 (Caenorhabditis elegans, UniProt G5EF15); experiment: disruptors of C. elegans POS-1 RNA interaction – biochemical, fluorescence polarization, dose response (AID 1964);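 further: purified POS-1 fused to maltose binding protein made in E. coli; potency of compounds blocking POS-1 binding to fluorescent RNA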
T3 sequence (G5EF15 whole entry): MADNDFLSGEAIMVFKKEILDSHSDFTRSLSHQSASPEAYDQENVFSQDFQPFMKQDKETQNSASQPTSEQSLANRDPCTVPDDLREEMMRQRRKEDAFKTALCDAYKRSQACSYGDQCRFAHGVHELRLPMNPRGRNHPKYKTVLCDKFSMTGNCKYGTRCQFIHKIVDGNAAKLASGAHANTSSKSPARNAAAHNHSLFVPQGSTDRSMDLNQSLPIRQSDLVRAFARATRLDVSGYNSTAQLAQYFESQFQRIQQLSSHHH

[22] = target: T4, Estrogen receptor (Homo sapiens, UniProt P03372); experiment: ERα coactivator recruitment enhancers – biochemical, TR-FRET, ERα LBD, dose response (AID 737)
T4 sequence (P03372 whole entry): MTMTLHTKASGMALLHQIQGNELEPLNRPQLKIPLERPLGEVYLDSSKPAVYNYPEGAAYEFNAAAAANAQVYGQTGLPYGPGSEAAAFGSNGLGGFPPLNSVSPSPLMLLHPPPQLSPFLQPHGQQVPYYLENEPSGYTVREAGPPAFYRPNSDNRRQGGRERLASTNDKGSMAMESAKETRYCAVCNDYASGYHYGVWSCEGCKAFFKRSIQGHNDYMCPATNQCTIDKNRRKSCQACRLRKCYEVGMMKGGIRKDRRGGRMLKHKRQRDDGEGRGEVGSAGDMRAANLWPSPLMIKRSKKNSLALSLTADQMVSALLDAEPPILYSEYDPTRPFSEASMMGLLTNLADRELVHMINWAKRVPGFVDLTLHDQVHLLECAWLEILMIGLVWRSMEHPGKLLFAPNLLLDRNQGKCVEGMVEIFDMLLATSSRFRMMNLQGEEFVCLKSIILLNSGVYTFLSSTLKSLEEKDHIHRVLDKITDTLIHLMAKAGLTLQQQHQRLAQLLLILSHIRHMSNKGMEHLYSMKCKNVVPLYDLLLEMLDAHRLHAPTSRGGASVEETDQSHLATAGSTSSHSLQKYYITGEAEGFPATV

[23] = Luminescence Cell-Based Dose Retest to Confirm Inhibitors of Cancer Stem Cells. [Related pubchem assays (depositor defined):AID2717, AID2721]; assay type: functional; settings: Homo sapiens
[24] = test system: Vero; experiment: mammalian cell viability reduction – secondary assay, cytotoxicity control for West Nile virus antiviral project, dose response (AID 1650); assay type: functional; settings: Chlorocebus sabaeus
[25] = target: T5, Calpain-2 catalytic subunit (Sus scrofa, UniProt P43367); experiment: m-calpain protease blockers, concentration series – biochemical, fluorogenic peptide substrate, dose response (AID 1420); assay type: functional
T5 sequence (P43367 whole entry): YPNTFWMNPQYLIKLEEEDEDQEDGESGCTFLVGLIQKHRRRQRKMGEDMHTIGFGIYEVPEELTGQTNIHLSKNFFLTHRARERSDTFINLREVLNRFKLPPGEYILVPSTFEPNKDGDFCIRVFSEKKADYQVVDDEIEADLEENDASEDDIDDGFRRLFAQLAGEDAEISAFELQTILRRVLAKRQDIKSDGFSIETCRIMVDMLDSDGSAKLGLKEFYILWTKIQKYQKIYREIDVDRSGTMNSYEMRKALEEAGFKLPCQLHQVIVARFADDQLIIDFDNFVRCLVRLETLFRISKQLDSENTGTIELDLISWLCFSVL

[26] = target: 14-3-3 protein gamma (Homo sapiens, UniProt P61981); experiment: modulators of 14-3-3 gamma client binding – dose response (AID 711); assay type: functional
14-3-3 protein gamma, sequence (P61981 whole entry): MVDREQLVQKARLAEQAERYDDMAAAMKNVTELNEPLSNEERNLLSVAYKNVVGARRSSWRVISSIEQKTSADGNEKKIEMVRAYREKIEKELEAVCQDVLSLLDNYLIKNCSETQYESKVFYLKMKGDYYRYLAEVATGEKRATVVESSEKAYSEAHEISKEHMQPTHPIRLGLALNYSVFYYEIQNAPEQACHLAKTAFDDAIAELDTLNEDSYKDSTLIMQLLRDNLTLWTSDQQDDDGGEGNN

NADPH oxidase 1, sequence (Q9Y5S8 whole entry): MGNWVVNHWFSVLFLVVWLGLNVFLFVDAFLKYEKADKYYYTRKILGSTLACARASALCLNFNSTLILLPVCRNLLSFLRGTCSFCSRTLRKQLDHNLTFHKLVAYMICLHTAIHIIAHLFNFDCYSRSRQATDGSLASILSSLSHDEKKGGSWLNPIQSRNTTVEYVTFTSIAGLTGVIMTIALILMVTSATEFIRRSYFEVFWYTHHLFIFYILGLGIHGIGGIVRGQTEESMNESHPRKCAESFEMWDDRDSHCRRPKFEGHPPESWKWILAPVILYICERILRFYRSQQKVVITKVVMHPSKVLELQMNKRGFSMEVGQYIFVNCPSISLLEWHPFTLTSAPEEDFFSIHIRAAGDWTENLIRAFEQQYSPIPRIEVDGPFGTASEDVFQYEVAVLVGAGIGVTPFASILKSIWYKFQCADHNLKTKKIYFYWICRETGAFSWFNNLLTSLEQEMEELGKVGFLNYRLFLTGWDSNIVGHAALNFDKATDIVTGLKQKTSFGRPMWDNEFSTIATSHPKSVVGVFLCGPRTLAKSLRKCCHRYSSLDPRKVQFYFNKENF
Cytochrome P450 2C19, sequence (P33261 whole entry): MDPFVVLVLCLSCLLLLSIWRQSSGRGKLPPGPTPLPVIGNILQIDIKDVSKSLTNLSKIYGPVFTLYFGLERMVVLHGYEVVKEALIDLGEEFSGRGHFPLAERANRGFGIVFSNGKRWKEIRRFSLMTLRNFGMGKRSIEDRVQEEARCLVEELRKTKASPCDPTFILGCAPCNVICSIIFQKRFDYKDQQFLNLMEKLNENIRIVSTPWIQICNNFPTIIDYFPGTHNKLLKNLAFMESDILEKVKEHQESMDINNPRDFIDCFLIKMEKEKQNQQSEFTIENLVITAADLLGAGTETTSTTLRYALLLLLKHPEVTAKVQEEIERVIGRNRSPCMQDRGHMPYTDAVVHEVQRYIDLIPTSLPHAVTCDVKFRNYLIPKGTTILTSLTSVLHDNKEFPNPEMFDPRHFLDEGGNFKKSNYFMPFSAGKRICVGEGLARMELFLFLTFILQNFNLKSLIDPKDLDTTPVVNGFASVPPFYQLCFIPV
Induced myeloid leukemia cell differentiation protein Mcl-1, sequence (Q07820 whole entry): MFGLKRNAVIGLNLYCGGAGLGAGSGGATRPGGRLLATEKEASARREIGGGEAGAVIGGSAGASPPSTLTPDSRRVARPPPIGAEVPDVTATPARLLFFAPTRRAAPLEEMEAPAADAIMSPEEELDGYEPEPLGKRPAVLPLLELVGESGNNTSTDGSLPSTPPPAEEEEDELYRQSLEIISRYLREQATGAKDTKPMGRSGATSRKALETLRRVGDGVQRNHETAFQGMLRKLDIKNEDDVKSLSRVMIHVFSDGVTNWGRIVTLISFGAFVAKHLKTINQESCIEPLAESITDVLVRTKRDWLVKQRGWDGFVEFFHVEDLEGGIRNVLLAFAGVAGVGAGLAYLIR
Aryl hydrocarbon receptor, sequence (P35869 whole entry): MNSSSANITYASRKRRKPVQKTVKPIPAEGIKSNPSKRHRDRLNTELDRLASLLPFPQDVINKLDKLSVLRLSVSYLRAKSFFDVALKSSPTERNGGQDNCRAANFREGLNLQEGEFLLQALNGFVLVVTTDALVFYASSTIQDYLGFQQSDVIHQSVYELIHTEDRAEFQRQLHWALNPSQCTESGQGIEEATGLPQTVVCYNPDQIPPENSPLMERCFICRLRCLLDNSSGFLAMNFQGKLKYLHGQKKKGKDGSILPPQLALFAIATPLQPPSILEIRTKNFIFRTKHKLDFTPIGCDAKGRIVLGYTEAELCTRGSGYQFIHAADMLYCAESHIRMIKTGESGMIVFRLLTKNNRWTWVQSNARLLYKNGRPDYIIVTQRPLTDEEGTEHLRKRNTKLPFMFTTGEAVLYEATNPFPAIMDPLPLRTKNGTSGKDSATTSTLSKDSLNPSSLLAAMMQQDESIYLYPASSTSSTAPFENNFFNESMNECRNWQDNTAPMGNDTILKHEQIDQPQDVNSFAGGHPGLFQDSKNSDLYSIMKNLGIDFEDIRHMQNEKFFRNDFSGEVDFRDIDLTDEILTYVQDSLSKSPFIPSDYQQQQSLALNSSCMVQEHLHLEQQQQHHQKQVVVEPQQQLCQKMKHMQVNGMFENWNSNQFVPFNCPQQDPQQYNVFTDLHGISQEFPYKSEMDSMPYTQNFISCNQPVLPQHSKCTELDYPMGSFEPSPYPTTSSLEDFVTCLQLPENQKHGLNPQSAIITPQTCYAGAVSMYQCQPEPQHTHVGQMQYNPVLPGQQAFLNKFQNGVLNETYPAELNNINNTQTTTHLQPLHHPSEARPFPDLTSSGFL
Bcl-2-like protein 1, sequence (Q07817 whole entry): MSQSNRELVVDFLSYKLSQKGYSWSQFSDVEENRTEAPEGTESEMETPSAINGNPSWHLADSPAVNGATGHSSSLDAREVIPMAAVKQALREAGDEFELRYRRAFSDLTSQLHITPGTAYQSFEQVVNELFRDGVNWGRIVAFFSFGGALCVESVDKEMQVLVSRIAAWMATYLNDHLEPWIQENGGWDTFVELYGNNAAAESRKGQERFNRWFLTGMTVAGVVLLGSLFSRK
Cytochrome P450 2C9, sequence (P11712 whole entry): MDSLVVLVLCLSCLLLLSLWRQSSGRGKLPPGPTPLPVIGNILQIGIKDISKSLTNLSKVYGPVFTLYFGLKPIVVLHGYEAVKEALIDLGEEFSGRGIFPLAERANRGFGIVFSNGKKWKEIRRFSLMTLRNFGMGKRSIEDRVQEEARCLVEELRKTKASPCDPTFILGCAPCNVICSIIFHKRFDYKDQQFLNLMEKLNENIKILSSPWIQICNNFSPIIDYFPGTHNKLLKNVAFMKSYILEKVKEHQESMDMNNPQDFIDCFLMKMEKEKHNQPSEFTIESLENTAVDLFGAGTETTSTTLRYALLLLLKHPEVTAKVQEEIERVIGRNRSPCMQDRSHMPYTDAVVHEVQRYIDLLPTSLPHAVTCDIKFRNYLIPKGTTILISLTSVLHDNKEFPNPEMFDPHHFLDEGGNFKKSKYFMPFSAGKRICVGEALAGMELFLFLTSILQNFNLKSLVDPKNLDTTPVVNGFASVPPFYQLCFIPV
Cytochrome P450 3A4, sequence (P08684 whole entry): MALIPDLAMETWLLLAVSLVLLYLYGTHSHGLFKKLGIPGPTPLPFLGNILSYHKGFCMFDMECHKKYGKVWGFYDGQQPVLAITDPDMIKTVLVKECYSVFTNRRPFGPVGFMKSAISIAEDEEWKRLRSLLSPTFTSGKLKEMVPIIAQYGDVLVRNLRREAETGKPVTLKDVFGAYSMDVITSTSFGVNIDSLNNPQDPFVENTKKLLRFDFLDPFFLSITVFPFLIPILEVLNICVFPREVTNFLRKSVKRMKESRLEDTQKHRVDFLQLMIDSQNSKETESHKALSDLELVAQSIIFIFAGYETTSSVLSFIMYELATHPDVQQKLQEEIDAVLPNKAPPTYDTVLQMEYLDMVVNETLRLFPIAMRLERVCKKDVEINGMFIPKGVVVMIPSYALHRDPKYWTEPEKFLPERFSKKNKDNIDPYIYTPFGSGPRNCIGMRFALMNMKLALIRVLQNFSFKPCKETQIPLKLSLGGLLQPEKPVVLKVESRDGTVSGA
Estrogen receptor beta, sequence (Q92731 whole entry): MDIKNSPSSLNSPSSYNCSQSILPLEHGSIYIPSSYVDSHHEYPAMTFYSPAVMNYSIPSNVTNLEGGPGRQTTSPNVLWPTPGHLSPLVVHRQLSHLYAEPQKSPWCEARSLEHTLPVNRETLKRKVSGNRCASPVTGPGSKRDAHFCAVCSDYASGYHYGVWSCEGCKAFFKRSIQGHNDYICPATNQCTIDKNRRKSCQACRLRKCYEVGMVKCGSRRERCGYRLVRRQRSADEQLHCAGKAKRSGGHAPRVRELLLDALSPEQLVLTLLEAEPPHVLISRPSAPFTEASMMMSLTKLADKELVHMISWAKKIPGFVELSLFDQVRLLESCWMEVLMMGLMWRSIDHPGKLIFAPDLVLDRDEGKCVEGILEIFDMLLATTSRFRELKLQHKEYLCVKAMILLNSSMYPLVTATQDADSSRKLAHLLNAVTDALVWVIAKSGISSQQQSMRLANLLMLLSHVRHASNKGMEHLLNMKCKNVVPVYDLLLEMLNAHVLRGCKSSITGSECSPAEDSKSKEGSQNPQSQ
Large T antigen, sequence (P03070 whole entry): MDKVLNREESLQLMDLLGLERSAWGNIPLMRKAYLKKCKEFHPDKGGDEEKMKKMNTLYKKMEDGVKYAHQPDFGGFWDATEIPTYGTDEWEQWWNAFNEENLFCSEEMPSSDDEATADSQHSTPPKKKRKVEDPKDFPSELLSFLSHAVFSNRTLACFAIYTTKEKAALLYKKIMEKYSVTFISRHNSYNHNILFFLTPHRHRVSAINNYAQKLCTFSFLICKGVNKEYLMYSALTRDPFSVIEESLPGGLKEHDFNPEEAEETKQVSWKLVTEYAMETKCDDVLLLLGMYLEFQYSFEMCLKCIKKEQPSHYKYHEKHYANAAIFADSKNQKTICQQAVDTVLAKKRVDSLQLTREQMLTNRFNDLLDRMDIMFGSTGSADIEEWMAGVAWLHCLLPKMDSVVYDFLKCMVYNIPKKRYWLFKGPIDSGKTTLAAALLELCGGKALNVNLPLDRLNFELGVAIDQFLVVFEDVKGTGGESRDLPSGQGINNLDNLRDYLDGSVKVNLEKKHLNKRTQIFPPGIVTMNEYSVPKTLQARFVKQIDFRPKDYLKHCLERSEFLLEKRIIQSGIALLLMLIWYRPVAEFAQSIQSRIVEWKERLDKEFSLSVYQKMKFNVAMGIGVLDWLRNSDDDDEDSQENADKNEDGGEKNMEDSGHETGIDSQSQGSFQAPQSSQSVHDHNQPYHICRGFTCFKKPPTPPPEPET

With `Clc1ccc(C[n+]2c(-c3ccccc3)cc(-c3ccccc3)cc2-c2ccccc2)cc1.[O-][Cl+3]([O-])([O-])[O-]` the EC50 [1] was 0.173 µM (active), the AC50 [2] was 2.05 µM (active) and the EC50 [3] was > 89.2 µM (inactive). The EC50 [4] was > 60 µM (not active) and the EC50 [5] was < 0.1 µM (active).

For `O=C(CCc1ccc(O)cc1)c1c(O)cc(O)cc1O[C@@H]1O[C@@H](CO)[C@@H](O)[C@@H](O)[C@H]1O`, the AC50 [6] was 6.31 µM (inconclusive).

In the case of `COc1ccccc1-c1nnc(NC(C)=O)s1`, the AC50 [7] is reported as “inconclusive” and the EC50 [8] is reported as 11 µM (not active).

In the case of `NC(=O)Cn1c(=O)n(Cc2ccco2)c(=O)c2c3c(sc21)CCCCC3`, the AC50 [9] is reported as 25.1 µM (inconclusive), the EC50 [10] is reported as > 120 µM (not active) and the EC50 [11] is reported as > 120 µM (not active). The IC50 [12] was 33 µM (active), the EC50 [13] was > 120 µM (not active) and the IC50 [14] was < 0.023 µM (not active).

In the case of `COc1ccc(-c2nc(-c3ccc(OC)c(OC)c3)[nH]c2-c2ccc(OC)cc2)cc1`, the IC50 [15] is reported as > 17 µM (not active).

For `COc1ccc(OC2C=CC(C#Cc3ccc(Br)cc3)OC2CO)c(C(C)(C)C)c1` (centres undefined), the AC50 [6] was 3.16 µM (inconclusive).

In the case of `COc1cc(NC(=O)c2noc3c2CCC3)c(OC)cc1Cl`, the IC50 [16] is reported as 11.1 µM (not active) and the IC50 [17] is reported as > 109 µM (not active).

With `COc1ccc(C2=CC3=C(Br)C(=O)C(C)(OC(=O)c4cccs4)C(=O)C3=CO2)cc1` (centres undefined) the AC50 [18] was > 100 µM (inactive), the EC50 [19] was 29.1 µM (active) and the AC50 [20] was 2.35 µM (active). The IC50 [16] was 16.8 µM (not active), the EC50 [21] was 32.8 µM (active) and the IC50 [17] was > 109 µM (not active).

For `CC1Cc2ccccc2N1C(=O)CSc1nnc(-c2ccc(S(=O)(=O)N3CCCC3)cc2)o1` (centres undefined), the EC50 [22] was 7.79 µM (active).

In the case of `Cc1ccc2nc(NC(=O)c3cccc(-c4cc5ccccc5oc4=O)c3)sc2c1`, the AC50 [23] is reported as 1.71 µM (active), the CC50 [24] is reported as > 100 µM (active) and the EC50 [4] is reported as > 60 µM (not active). The EC50 [5] was 1.09 µM (active).

With `CC(=O)Nc1ccc(/C=N/Nc2c(Cl)cc(Cl)cc2Cl)cc1` the IC50 [15] was > 17 µM (not active).

For `COc1ccccc1-n1nnnc1SCc1cc2c(cc1Br)OCO2`, the IC50 [25] was 1.36 µM (not active) and the IC50 [26] was > 50 µM (not active).

For `COc1cc(/C=N/NC(=O)c2cccc(NC(=O)c3ccccc3)c2)ccc1O`, the EC50 [8] was 5.62 µM (active).

With `C/C(=N\O)C(=O)NCc1ccccn1` the IC50 [26] was > 50 µM (not active).
